Test results reported in publication PMC3397391 (Chemistry & biology, 2012).

Tested on: cultured P. falciparum
Assay: Cell culture inhibition assay, cultured parasites
Assay type: cell-based, Plasmodium falciparum
Details: in the presence of hypoxanthine; data not shown

Compound: O=c1[nH]cnc2c([C@@H]3N[C@H](COP(=O)(O)O)[C@@H](O)[C@H]3O)c[nH]c12 [ImmHP, Immucillin-H 5′-phosphate]
- activity against cultured P. falciparum: lacks activity
